Results: PMC3950665, “Syn5 RNA polymerase synthesizes precise run-off RNA products” (Nucleic Acids Research, 2013)

Assays:
T7 RNA polymerase = biological target: T1, T7 RNA polymerase (Escherichia phage T7, UniProt P00573); assay: run-off transcription, agarose gel and RNA yield by A260; assay type: biochemical; conditions: ATP, GTP, NotI-linearized pET24-Syn5RNAP, 6 mM MgCl2, pH 8.0, no KCl, 37°C
T1 construct: gene 1

Syn5 RNA polymerase = biological target: T2, Syn5 RNA polymerase (Synechococcus phage Syn5, UniProt A4ZR96); assay: as above; assay type: biochemical; conditions: ATP, GTP, NotI-linearized pET24-Syn5RNAP, 6 mM MgCl2, pH 8.0, no KCl, 24°C
T2 construct: gene 15; His-tagged, pET24 (NdeI/NotI), expressed in E. coli BL21(DE3); single-subunit
T2 sequence (A4ZR96 1-779): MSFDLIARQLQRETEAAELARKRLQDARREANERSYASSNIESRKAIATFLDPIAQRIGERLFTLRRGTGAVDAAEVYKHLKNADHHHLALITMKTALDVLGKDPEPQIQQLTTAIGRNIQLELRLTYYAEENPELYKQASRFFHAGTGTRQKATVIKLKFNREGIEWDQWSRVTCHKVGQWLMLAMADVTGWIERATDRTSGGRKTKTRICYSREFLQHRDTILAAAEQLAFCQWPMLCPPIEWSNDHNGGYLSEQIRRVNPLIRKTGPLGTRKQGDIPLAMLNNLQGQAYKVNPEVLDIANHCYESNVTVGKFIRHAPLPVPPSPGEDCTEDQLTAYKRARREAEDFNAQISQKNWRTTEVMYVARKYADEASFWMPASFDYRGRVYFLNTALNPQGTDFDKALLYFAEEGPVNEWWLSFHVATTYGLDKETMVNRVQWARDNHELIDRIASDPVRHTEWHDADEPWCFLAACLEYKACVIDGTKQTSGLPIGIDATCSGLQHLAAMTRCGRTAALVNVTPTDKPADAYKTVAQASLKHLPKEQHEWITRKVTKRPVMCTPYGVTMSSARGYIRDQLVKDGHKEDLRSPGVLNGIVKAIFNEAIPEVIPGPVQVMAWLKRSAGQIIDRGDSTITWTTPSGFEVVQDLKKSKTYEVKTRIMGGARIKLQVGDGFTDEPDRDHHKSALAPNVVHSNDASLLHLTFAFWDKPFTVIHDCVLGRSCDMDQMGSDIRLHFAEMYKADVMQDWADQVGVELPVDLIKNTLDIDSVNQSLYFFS

T1 sequence (P00573 whole entry): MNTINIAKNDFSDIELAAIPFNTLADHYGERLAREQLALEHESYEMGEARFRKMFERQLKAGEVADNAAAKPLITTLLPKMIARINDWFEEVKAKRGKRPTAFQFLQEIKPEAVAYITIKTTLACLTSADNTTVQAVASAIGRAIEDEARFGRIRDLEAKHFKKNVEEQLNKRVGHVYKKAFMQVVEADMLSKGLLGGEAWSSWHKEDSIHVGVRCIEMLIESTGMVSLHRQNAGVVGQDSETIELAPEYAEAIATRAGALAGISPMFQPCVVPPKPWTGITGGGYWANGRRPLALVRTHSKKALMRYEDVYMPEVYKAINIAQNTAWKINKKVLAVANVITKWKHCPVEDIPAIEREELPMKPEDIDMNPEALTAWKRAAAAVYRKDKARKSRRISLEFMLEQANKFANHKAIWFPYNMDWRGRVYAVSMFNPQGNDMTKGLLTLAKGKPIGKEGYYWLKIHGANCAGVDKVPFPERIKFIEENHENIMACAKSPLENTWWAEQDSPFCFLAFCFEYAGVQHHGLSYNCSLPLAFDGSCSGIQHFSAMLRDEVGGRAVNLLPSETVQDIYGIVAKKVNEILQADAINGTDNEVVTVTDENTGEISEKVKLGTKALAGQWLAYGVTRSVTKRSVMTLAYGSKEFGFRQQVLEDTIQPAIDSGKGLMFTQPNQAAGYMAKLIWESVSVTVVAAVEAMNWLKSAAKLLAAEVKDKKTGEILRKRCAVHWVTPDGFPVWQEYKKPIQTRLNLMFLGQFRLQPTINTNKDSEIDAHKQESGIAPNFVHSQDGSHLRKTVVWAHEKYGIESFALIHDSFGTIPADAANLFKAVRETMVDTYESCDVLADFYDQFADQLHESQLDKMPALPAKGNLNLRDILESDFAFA

Structure (SMILES) | run-off transcription, agarose gel and RNA yield by A260 (T7 RNA polymerase; replaces CTP at 600 µM, UTP) | run-off transcription, agarose gel and RNA yield by A260 (Syn5 RNA polymerase; replaces CTP at 600 µM, UTP) | run-off transcription, agarose gel and RNA yield by A260 (T7 RNA polymerase; replaces UTP at 600 µM, CTP) | run-off transcription, agarose gel and RNA yield by A260 (Syn5 RNA polymerase; replaces UTP at 600 µM, CTP)
Cc1cn([C@@H]2O[C@H](COP(=O)(O)OP(=O)(O)OP(=O)(O)O)[C@@H](O)[C@H]2O)c(=O)nc1N [5-methylcytidine-5′-triphosphate] | T7 RNA polymerase also incorporates 5mC and Ps-U at comparable efficiencies | the efficiency by which Syn5 RNA polymerase incorporated 5mC and Ps-U | – | –
O=c1[nH]cc([C@@H]2O[C@H](COP(=O)(O)OP(=O)(O)OP(=O)(O)O)[C@@H](O)[C@H]2O)c(=O)[nH]1 [pseudouridine-5′-triphosphate] | – | – | T7 RNA polymerase also incorporates 5mC and Ps-U at comparable efficiencies | the efficiency by which Syn5 RNA polymerase incorporated 5mC and Ps-U
